Results published in patent publication US20070009377A1, “Methods for Reducing Pathogens in Biological Samples” (priority 2005, published 2007).

Key:
[1] = test system: apheresis platelet concentrates; experiment: In vitro cell quality tests of stored platelets after riboflavin + UV light treatment (clinical study one); format: cell-based, human
Protocol: The platelet concentrate with a volume of 250 mL was transferred into a 3-litre polyolefin bag (Sengewald, Rohrdorf, Germany), followed by addition of 27 mL sterile 500 μM riboflavin so that the final concentration in the product was ca. 50 μM. The platelet products were then exposed to UV light (phosphor 265-370 nm) at either a medium dose level (7.2 J/ml) or high dose level (12.4 J/ml). Total illumination time varied from approximately 5-10 minutes with agitation at a temperature of 25-30° C. After treatment, platelet products were transferred into a citrated polyvinyl chloride ELP™ bag (Gambro BCT, Lakewood, Colo.). The treated and control PCs were stored for an additional 5 days at 20-24° C. under standard blood bank conditions. Control platelet products were prepared in the same manner as the treated counterparts except no riboflavin was added and no UV light treatment was performed.
Platelet samples were taken for lab tests at day 0, 3 and 5 of platelet storage using aseptic technique and analysis was completed within 2 hours. The in vitro cell quality tests for platelet count, swirl score, pH, pO2, pCO2, lactate and glucose were performed per standard operating procedures (SOPs) of the trial site. Hypotonic shock response (HSR) and P-selectin expression were measured as described by Ruane et al. (Ruane P H, Edrich R, Gampp D et al. Photochemical inactivation of selected viruses and bacteria in platelet concentrates using riboflavin and light. Transfusion 2004;44:877-85.)
Following Ethical Committee approval and notification of the MCC, the competent authority of South Africa, a total of 18 platelet products were collected with yields ranging from 2.9 to 3.8×10^11 platelets using standard Trima apheresis procedures. Products were treated in a polyolefin container, Sengewald bag, with UV light at either a medium UV dose (7.2 J/ml; N=5) or a high UV dose (12.4 J/ml; N=6) in the presence of 50 μM riboflavin on the day of collection. An additional seven products served as controls which were not treated with UV light. All treated and control PC products were transferred to and stored in ELP™ bags under normal blood bank conditions for 5 days post-apheresis collection. At day 0 (pre-treatment), day 3 and day 5 of storage, the samples from all PC products were measured for pH, pO2, pCO2, lactate and glucose concentrations, P-selectin, HSR and platelet swirl. […] UV treatment also accelerated an increase in P-selectin expression and decreases in HSR and swirl score during platelet storage. It appears that the severity of these changes during platelet storage were in direct proportion to the levels of UV dose applied.

[2] = test system: platelets; experiment: In vivo radiolabeled platelet recovery after infusion into the autologous donor (clinical study one); design: species or system human; conditions: after 5-day storage
Protocol: At the end of the 5-day storage period, a small aliquot of the platelets was radiolabeled with ^111Indium, according to the study site's SOP (in agreement with local and international standards for radiolabeling of human platelets). The labeling procedure was performed after formation of ^111In-tropolonate through mixing of ^111Indium chloride (Amersham) with tropolone. If the pH of the platelet samples to be labeled was>6.5, it was brought down to 6.5 to prevent irreversible aggregation of platelets during pelleting.
After washing and resuspension in plasma, a radiolabeled aliquot was infused into the autologous donor. The total radioactivity that was given to a subject in this study was less than 8 MBq. Blood samples for radioactivity counting were collected 15 minutes, 1 hour and 2-3 hours after infusion, twice (AM and PM) on day 1 post-infusion and once on days 2-6 post-infusion. After correcting for 2-hour radioelution as described by Holme, et al., (Holme S, Heaton A, Roodt J. Concurrent label method with 111In and 51Cr allows accurate evaluation of platelet viability of stored platelet concentrates. Br J Haematol 1993;84:717-23.) in vivo radiolabeled platelet recovery and survival values were calculated by the COST computer program using the multiple-hit model. […]

- pO2 ([1]; 50 μM riboflavin + high UV dose (12.4 J/ml), Day 0 (pre-treatment)): 95 +/− 19 mmHg
- pO2 ([1]; 50 μM riboflavin + high UV dose (12.4 J/ml), Day 3): 83 +/− 22 mmHg
- pO2 ([1]; 50 μM riboflavin + high UV dose (12.4 J/ml), Day 5): 88 +/− 30 mmHg
- pO2 ([1]; 50 μM riboflavin + medium UV dose (7.2 J/ml), Day 0 (pre-treatment)): 60 +/− 15 mmHg
- pO2 ([1]; 50 μM riboflavin + medium UV dose (7.2 J/ml), Day 3): 82 +/− 24 mmHg
- pO2 ([1]; 50 μM riboflavin + medium UV dose (7.2 J/ml), Day 5): 68 +/− 17 mmHg
Structure (SMILES): Cc1cc2nc3c(=O)[nH]c(=O)nc-3n(C[C@H](O)[C@H](O)[C@H](O)CO)c2cc1C [riboflavin, 7,8-dimethyl-10-ribityl isoalloxazine]
- average in vivo recovery of infused platelets ([2]; 50 μM riboflavin + high dose of UV light (12.4 J/ml)): 14%
- average in vivo recovery of infused platelets ([2]; 50 μM riboflavin + medium dose of UV light (7.2 J/ml)): 30%
